Measured values as given in US12202840B2, “Compounds for the treatment or alleviation of disorders associated with Tau aggregates” (AC Immune SA, priority 2018, dated 2025).

Tested on: rTg4510 mice
Test: Morris Water Maze behavioral test, study of Example 2
Type: in vivo
Settings: once daily by gavage, 7 and 20 mg/kg, statistical significance at 20 mg/kg, FIG. 4
Description: Double transgenic rTg4510 mice are an aggressive Tauopathy model expressing the full-length human Tau carrying the P301L mutation (Tau4R0N-P301L) under the control of the tetracycline-inducible CaMKII promoter (Ramsden et al., 2005). Wild-type animals and single transgenic mice expressing only the tetracycline-controlled transactivator (tTA) were used as genotype controls. Mice were treated and tested. The study comprised 4 treatment groups (n=15 female mice/group) with the following group distribution (see Table 6). Compound of the invention or vehicle control were administered once daily by gavage for 12 weeks starting at the age of 5.5 weeks. The Morris Water Maze (MWM) behavioral test was performed after 12.5 weeks of treatment over 5 consecutive days. During MWM testing daily dosing was continued. Behavioral testing (MWM) and biochemical quantification of sarkosyl-insoluble Tau were performed on all mice (n=15 mice/group). […]
The MWM was performed in a circular tank, measuring 48″ in diameter. […] Trials were video recorded and analyzed by a computer program (WaterMaze; Actimetrics, Wilmette, Ill.). […] Percent crossing in each quadrant (target, left and right adjacent, and opposite) was calculated for probe trials. Data were analyzed by 2-way ANOVA followed by post-hoc comparisons and shown statistics refers to differences compared to vehicle treated rTg4510 mice.

Compound: CN(C)[C@@H]1CCc2c(c3ccc(Nc4ccc5sc(N6CCOCC6)nc5c4)nc3n2C)C1 [Example 2]
- percentage of platform crossings in the target compared to the opposite quadrant (MWM probe trial): dose-dependent increase
